Marks after values point to notes of the source that are not given here.
Legend:
WSU-DLCL2 xenograft = experiment: Inhibition of tumor growth in vivo, resistant WSU-DLCL2 SCID mouse model; settings: for Antitumor effect (%): WSU-DLCL2, Oral, BID
Procedure: Inhibition Study of Tumor Growth In Vivo:
SCID mice or nude mice (weighing about 18 g at the beginning of the experiment) were randomly divided into groups by the software in order to achieve close average weights between groups and control the bias within the allowable range. The mice were injected BTK cell lines (TMD-8, WSU-DLCL2 and DoHH-2) for tumor formation. […] Body weights and tumor volume were recorded.
Xenograft Tumor Models Inoculated with TMD-8, or DoHH2, or WSU-DLCL2 Tumor Cell Lines:
TMD-8 is a sensitive human diffuse large B-cell lymphoma cell line, and DoHH2 is a more difficult to treat human follicular lymphoma cell line, while WSU-DLCL2 is a multi-drug resistant (MDR) human non-Hodgkin's lymphoma cell line.
The TMD-8, DoHH2, WSU-DLCL2 tumor cells were maintained in vitro as a suspension culture in RPMI-1640 medium supplemented with 10% heat inactivated fetal calf serum at 37° C. in an atmosphere of 5% CO2 in air. The tumor cells were routinely subcultured twice weekly. The cells growing in an exponential growth phase were harvested and counted for tumor inoculation. Each mouse was inoculated subcutaneously at the right flank with the tumor cells (10×10^6) in 0.2 ml of PBS with Matrigel (1:1) for tumor development. The treatments were started after the average tumor size reached approximately 100-200 mm^3. Each group consisted of 6-10 tumor-bearing mice. […] Animal body weight and tumor volume were measured every 2- or 3-days throughout the treatment.

[1] = test system: resistant WSU-DLCL2 cell line; experiment: Inhibition assay of tumor cell activity (cell viability), WSU-DLCL2; format: cell-based; settings: Homo sapiens, WSUDLCL2, individual compound, read-out: Inh % on resistant WSU-DLCL2 cell line (AVG)
Procedure: (§1) Inhibition Assay of Tumor Cell Activity:
(§2) Tumor cells (TMD-8, DoHH2 and WSU-DLCL2) were transferred and attached to 96-well plates. After one night, blank buffer and selected concentrations (0.01 nM-100 μM) of the test compound solution were added. After 48 hours incubation, CellTiter-Go was added to lyse the cells. Recording luminescent signal and calculate the percent inhibition of cell viability

[2] = 28-day toxicity/toxicokinetic (TK) study in dogs; format: in vivo, dog
TMD-8 cell line = experiment: Inhibition assay of tumor cell activity (cell viability), TMD-8; format: cell-based, human; settings: individual compound; for Inh % on TMD-8 cell line (AVG): 48 h
Procedure: as §1, §2

[3] = test system: adjuvant-induced arthritis; experiment: Adjuvant-induced arthritis (AA/AIA) model in female Lewis rats (paw volume, clinical score, histopathology); format: in vivo, rat; parameters: Pathological score (Mean ± SEM), Inflammatory cell infiltration / Pathological score (Mean ± SEM), Pannus growth / Pathological score (Mean ± SEM), Cartilage injury / Pathological score (Mean ± SEM), Bone resorption / Pathological score (Mean ± SEM), Total: scale not given here; settings: for Paw volume (mL), Mean: 5 mg/kg BID
Source text: Adjuvant-Induced Arthritis AA Model: […] All rats except the normal group were immunized with complete Freund's adjuvant (CFA) subcutaneously at the left hind paw to induce arthritis at day 0. […] The treatments were given orally for 3 consecutive weeks. The body weight, paw volume and clinical score were monitored every other day after day 13 throughout the course of the study. At the terminal point, right hind paws were collected for histopathology analysis with H.E. staining.

[4] = test system: collagen induced arthritis; experiment: Collagen-induced arthritis (CIA) model in male DBA/1 mice (clinical score, histopathology); format: in vivo, mouse; parameters: Clinical Score (Mean) / Pathological score (Mean ± SEM), Inflammatory cell infiltration / Pathological score (Mean ± SEM), Pannus growth / Pathological score (Mean ± SEM), Cartilage injury / Pathological score (Mean ± SEM), Bone resorption / Pathological score (Mean ± SEM), Total: scale not given here
Procedure: Collagen-Induced Arthritis (CIA) Model: The combination of Compounds 3 and 12 was evaluated in collagen induced arthritis (CIA) mouse model in Male DBA/1 mice. The animals were divided into 8 groups, including a normal, a vehicle, […] treatment groups: […] On the same day, immunized mice were randomly divided into 7 groups: […] The treatments were given orally for 2 consecutive weeks. Body weight and clinical score were monitored through the study (recorded three times a week started after second immunization). At the end of the study, animals were euthanized and both hind paws were collected for histopathology analysis.

[5] = CIA study, Left hind paw, 3 alone, 1.5 mg/kg QD
[6] = CIA study, Right hind paw, 3 alone, 1.5 mg/kg QD

For C=CC(=O)N1CC[C@@H](n2nc(-c3ccc(Oc4c(F)c(F)cc(F)c4F)cc3F)c3c(N)ncnc32)C1 [Compound 3, 1-((R)-3-(4-amino-3-(2-fluoro-4-(2,3,5,6-tetrafluorophenoxy)phenyl)-1H-pyrazolo[3,4-d]pyrimidin-1-yl)pyrrolidin-1-yl)prop-2-en-1-one], the “Antitumor effect (%)” value (WSU-DLCL2 xenograft; FIG. 8, 28 days, 10 mg/kg) was 22%, the “Antitumor effect (%)” value (WSU-DLCL2 xenograft; FIG. 8, 28 days, 30 mg/kg) was 30% and the “Antitumor effect (%)” value (WSU-DLCL2 xenograft; FIG. 8, 28 days, 45 mg/kg) was 32%. The “Antitumor effect (%)” value (WSU-DLCL2 xenograft; FIG. 9, 18 days, 5 mg/kg) was 4%, the “Antitumor effect (%)” value (WSU-DLCL2 xenograft; FIG. 9, 18 days, 10 mg/kg) was 7% and the “Antitumor effect (%)” value (WSU-DLCL2 xenograft; FIG. 9, 18 days, 30 mg/kg) was 23%. For the same compound, the “efficacy / tumor growth” value (WSU-DLCL2 xenograft; WSU-DLCL2 mice model, FIGS. 8 and 9, triple combination at total 21 mg/kg/day) was “in line with the efficacy of Ibrutinib”, the inhibition at 0.01 µM ([1]; 0.01 uM) was -10.1% and the inhibition at 0.1 µM ([1]; 0.1 uM) was -1.36%. For the same compound, the inhibition at 1 µM ([1]; 1 uM) was 41%, the “AUC compared with ibrutinib” value [2] was “significantly higher” and the Cmax ([2]; 15 mg/kg/day, Day 1, Female) was 685 ± 212 ng/mL. It also gave an inhibition at 0.01 µM (TMD-8 cell line; Homo sapiens, TMD8, 48 h, 0.01 uM (10 nM), read-out: Inh % on TMD-8 cell line (AVG)) of 46.1%, an inhibition at 0.1 µM (TMD-8 cell line; Homo sapiens, TMD8, 48 h, 0.1 uM (100 nM), read-out: Inh % on TMD-8 cell line (AVG)) of 59.6% and an inhibition at 1 µM (TMD-8 cell line; Homo sapiens, TMD8, 48 h, 1 uM (1,000 nM), read-out: Inh % on TMD-8 cell line (AVG)) of 61.7%. The inhibition at 10 µM (TMD-8 cell line; Homo sapiens, TMD8, 48 h, 10 uM, read-out: Inh % on TMD-8 cell line (AVG)) was 74.9%, the inhibition at 100 µM (TMD-8 cell line; Homo sapiens, TMD8, 48 h, 100 uM, read-out: Inh % on TMD-8 cell line (AVG)) was 99.7% and the “Inh % on TMD-8 cell line (AVG)” value (TMD-8 cell line; 0.01 uM (10 nM)) was 51.66%. For the same compound, the “Inh % on TMD-8 cell line (AVG)” value (TMD-8 cell line; 0.1 uM (100 nM)) was 52.40%, the “Inh % on TMD-8 cell line (AVG)” value (TMD-8 cell line; 1 uM (1,000 nM)) was 55.05% and the “Paw volume (mL), Mean” value ([3]; Day 0) was 1.04 mL. The “Paw volume (mL), Mean” value ([3]; Day 17) was 1.87 ns mL, the “Paw volume (mL), Mean” value ([3]; Day 26) was 2.29** mL and the “Paw volume (mL), Mean” value ([3]; Day 28) was 2.12*** mL. For the same compound, the “Paw volume (mL), Mean” value ([3]; Day 31) was 2.12*** mL, the “Paw volume (mL), Mean” value ([3]; Day 33) was 2.09*** mL and the “effect on paw volume” value ([3]; AA rats model, FIG. 13) was “absent”. For the same compound, the “Pathological score (Mean ± SEM), Bone resorption” value ([3]; AA study, 3 alone, 5 mg/kg) was 3.0 ± 0.45, the “Pathological score (Mean ± SEM), Cartilage injury” value ([3]; AA study, 3 alone, 5 mg/kg) was 2.8 ± 0.51 and the “Pathological score (Mean ± SEM), Inflammatory cell infiltration” value ([3]; AA study, 3 alone, 5 mg/kg) was 3.5 ± 0.34. The “Pathological score (Mean ± SEM), Pannus growth” value ([3]; AA study, 3 alone, 5 mg/kg) was 3.2 ± 0.53, the “Pathological score (Mean ± SEM), Total” value ([3]; AA study, 3 alone, 5 mg/kg) was 12.5 ± 1.78 and the “effect on clinical score” value ([4]; CIA mice model, FIG. 15) was “absent”. The “Pathological score (Mean ± SEM), Total” value ([4]; CIA study, 3 alone, 1.5 mg/kg QD) was 3.90 ± 1.80, the “Pathological score (Mean ± SEM), Bone resorption” value [4, 5] was 0.60 ± 0.13 and the “Pathological score (Mean ± SEM), Cartilage injury” value [4, 5] was 0.80 ± 0.47. For the same compound, the “Pathological score (Mean ± SEM), Inflammatory cell infiltration” value [4, 5] was 1.00 ± 0.47, the “Pathological score (Mean ± SEM), Pannus growth” value [4, 5] was 0.80 ± 0.47 and the “Pathological score (Mean ± SEM), Bone resorption” value [4, 6] was 0.10 ± 0.10. The “Pathological score (Mean ± SEM), Cartilage injury” value [4, 6] was 0.20 ± 0.20, the “Pathological score (Mean ± SEM), Inflammatory cell infiltration” value [4, 6] was 0.20 ± 0.20 and the “Pathological score (Mean ± SEM), Pannus growth” value [4, 6] was 0.20 ± 0.20. The “Clinical Score (Mean)” value ([4]; CIA study, day 21, 3 alone, 1.5 mg/kg QD) was 0.00, the “Clinical Score (Mean)” value ([4]; CIA study, day 32, 3 alone, 1.5 mg/kg QD) was 2.60 and the “Clinical Score (Mean)” value ([4]; CIA study, day 39, 3 alone, 1.5 mg/kg QD) was 4.20***. For the same compound, the “Clinical Score (Mean)” value ([4]; CIA study, day 42, 3 alone, 1.5 mg/kg QD) was 4.00***.
